Assay results taken from patent US11008332B2, “Pharmaceutical composition for preventing or treating aging-related diseases containing decursin derivative as active ingredient” (PRG S&TECH INC., priority 2017, dated 2021).

What was measured:
CYP1A2 = target: T1, CYP1A2 (Homo sapiens, UniProt P05177); test: CYP inhibition CYP1A2; type: in vitro ADME
T1 sequence (P05177 1-516): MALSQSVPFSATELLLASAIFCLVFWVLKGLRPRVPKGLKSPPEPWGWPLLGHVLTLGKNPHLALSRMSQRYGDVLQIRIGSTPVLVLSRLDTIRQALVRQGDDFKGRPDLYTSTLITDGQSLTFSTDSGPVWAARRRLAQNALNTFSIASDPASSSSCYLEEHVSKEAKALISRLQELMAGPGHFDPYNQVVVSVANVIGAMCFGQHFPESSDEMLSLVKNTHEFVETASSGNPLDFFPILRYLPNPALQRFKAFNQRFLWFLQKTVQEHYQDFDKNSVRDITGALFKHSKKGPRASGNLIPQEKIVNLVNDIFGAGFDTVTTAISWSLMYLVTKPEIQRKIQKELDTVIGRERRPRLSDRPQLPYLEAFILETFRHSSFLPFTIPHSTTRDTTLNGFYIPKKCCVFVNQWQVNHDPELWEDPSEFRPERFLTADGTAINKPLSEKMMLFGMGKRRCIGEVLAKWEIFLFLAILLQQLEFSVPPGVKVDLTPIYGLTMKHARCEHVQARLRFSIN
Procedure: (§1) In vitro ADME studies (plasma protein binding, CYP inhibition, microsomal stability, plasma stability and hERG inhibition) were performed by New drug development center though standard protocols.

CYP2D6 = CYP2D6 (Homo sapiens, UniProt P10635); test: CYP inhibition CYP2D6; type: in vitro ADME
Procedure: as §1

Water solubility = type: physicochemical
[1] = Stability in monoolein-based solution on heating and sonication (LC-MS); type: physicochemical; conditions: heating at 80° C. and sonication, FIG. 3B

CYP2D6, sequence (P10635 whole entry): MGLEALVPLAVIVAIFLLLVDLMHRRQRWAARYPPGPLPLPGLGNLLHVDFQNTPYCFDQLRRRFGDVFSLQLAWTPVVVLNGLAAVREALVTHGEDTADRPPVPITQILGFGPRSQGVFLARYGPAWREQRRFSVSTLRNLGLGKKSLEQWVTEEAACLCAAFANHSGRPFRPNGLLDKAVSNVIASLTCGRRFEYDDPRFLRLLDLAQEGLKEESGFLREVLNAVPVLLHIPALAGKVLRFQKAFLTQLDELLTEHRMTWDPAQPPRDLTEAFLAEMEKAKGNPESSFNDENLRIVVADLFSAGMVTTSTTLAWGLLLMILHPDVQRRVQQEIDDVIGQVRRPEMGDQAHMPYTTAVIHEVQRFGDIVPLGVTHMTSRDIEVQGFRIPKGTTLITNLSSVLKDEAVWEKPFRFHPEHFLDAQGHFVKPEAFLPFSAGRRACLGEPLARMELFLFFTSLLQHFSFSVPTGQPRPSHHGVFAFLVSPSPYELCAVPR

CC1(C)Oc2cc3oc(=O)ccc3cc2C[C@@H]1OC/C=C/c1ccccc1 [SLC-D011, (7S)-(+)-8,8-dimethyl-7-(3-phenyl-allyloxy)-7,8-dihydro-6H-pyrano[3,2-g]chromen-2-one]
CYP inhibition CYP1A2 (CYP1A2): 81.6 | CYP inhibition CYP2D6 (CYP2D6): 91.7 | water solubility (Water solubility): very low water solubility | stability in solution on heating and ultrasonic treatment [1]: stable without being decomposed even by heating and ultrasonic treatment
